Calls of active or inactive are those of the source.
Tests used:
BJ [1] = test: BJ-TERT fibroblast viability loss – cell-based, RAS-independent, luminescence, dose response (AID 1933); type: functional; details: Homo sapiens
[2] = molecular target: Luciferin 4-monooxygenase (Photinus pyralis, UniProt P08659); test: inhibition of purified Photinus pyralis luciferase – biochemical, luminescence, dose response (AID 1891)
BJ [3] = test: cells; type: functional, cell-based; details: Homo sapiens
[4] = DRD fibroblast viability loss – cell-based, non-viral oncogenic, luminescence, dose response (AID 1934); type: functional; details: Homo sapiens
[5] = reduction of Shn3 3'UTR-driven luciferase in osteoblasts – cell-based, Clone20 osteoblasts, firefly luciferase, cherry-picked, dose response (AID 624132); type: functional;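 further: firefly luciferase luminescence from reporter carrying the Shn3 3'UTR in osteoblasts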
[6] = viability loss in HEK293 cells – cell-based, plate reader, cherry-picked samples, cytotoxicity control, dose response (AID 743446); type: functional
[7] = HEK-293T viability loss, compound-treated – cell-based, uHTS hits, cytotoxicity control for B/T-cell NF-kB inhibitor project, dose response (AID 489019); type: functional;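 further: IC50 reflects cytotoxicity as loss of cell viability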
[8] = A549 cell cytotoxicity, dose response, cytotoxicity control, plate reader, cherry-pick, antagonist series (AID 743412); type: functional, cell-based
[9] = blockers of HIV-1 ZM109 envelope-driven cell-cell fusion – HeLa effector, CEM target cells, luciferase, cherry-pick, dose response (AID 652058); type: functional, cell-based;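 further: luciferase signal from HIV-1 Env mediated cell-cell fusion of effector and target cells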
[10] = off-target signal loss in HeLa-CEM21 co-culture – HeLa F-luc CTL cells, cherry-picked, counter-screen for HIV-1 Env fusion inhibitor project, dose response (AID 652040); type: functional, cell-based;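 further: potency for signal decrease marking cytotoxic or nonspecific inhibition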
[11] = blockade of melanocortin 4 receptor signaling – cell-based, plate reader, cherry pick, counter-screen for LGR2 antagonist project, dose response (AID 743444); type: functional;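 further: transfected HEK 293 cells stimulated with alpha-MSH peptide; potency of inhibitors of the alpha-MSH evoked signal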
BJ [12] = test: BJ-TERT-LT-ST fibroblast viability loss – cell-based, RAS-independent, luminescence, dose response (AID 1935); type: functional; details: Homo sapiens;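 further: BJ fibroblasts immortalized with TERT plus LT and ST oncogenes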
[13] = HIV-1 AD8 envelope cell-cell fusion blockers – cherry-pick, dose response (AID 652062); type: functional, cell-based;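 further: luciferase signal from cell-cell fusion driven by HIV-1 clade B AD8 Env; potency is for inhibitors of fusion seen as a drop in luminescence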
[14] = blockers of HIV-1 envelope-mediated cell-cell fusion – cherry-pick, dose response (AID 652057); type: functional, cell-based
Jurkat = test: blockers of NF-kB activation in T cells – Jurkat, luciferase reporter, luminescence, B- and T-cell, dose response (AID 489004); type: functional, cell-based; details: Homo sapiens;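 further: NF-kB luciferase reporter Jurkat cells stimulated with PMA plus ionomycin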
BJ [15] = test: growth inhibition of engineered Ras-driven BJ cells – cell-based, alamar blue fluorescence, cherrypicked samples, dose response (AID 2631); type: functional; details: Homo sapiens;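 further: confirmatory dose-response assay in RAS-dependent BJ fibroblasts engineered with TERT, LT and ST, with cytotoxicity read by fluorescence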
[16] = loss of viability in HepG2 cells – cell-based, CellTiter-Glo, cherry-picked, cytotoxicity control for Shn3 inhibitor project, dose response (AID 624134); type: functional
[17] = Luminescence Cell-Based Dose Confirmation HTS to Identify Inhibitors of Platelet Dense Granule Release. [Related pubchem assays: 1663 (Primary HTS), 1678 (Summary of Project)]; type: functional
[18] = toxicity toward HepG2 liver cells – cell-based, plate reader, cherry-pick, antagonist series, cytotoxicity control, dose response (AID 743416); type: functional
[19] = blockers of bursicon-stimulated LGR2 cAMP reporter – cell-based, HEK293, CRE-luciferase reporter, cherry pick, set 2, dose response (AID 743343); type: functional;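 further: transfected cells were stimulated with diluted bursicon conditioned medium after compound addition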
[20] = viability loss in CEM21 cells – cell-based, CellTiter-Glo luminescence, cherry-picked, cytotoxicity control for viral fusion inhibitor project, dose response (AID 652042); type: functional;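 further: potency for signal decrease meaning cytotoxicity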
[21] = molecular target: T1, Mitochondrial peptide methionine sulfoxide reductase (Bos taurus, UniProt P54149); test: Absorbance-based biochemical high throughput dose response assay for activators of Methionine sulfoxide reductase A (MsrA).; type: functional
T1 sequence (P54149 whole entry): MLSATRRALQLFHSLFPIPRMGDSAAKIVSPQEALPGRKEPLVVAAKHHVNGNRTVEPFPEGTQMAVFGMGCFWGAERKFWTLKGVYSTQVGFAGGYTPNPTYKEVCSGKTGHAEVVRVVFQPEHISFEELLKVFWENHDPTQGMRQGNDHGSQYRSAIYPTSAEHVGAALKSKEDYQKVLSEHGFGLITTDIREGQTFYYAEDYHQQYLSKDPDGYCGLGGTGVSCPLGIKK

Melanocortin receptor 4 = Melanocortin receptor 4 (Homo sapiens, UniProt P32245); type: functional, cell-based;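 further: Cell-based assay with luminescence read-out, confirmatory dose-response testing for agonist activity of biased ligands at MC4R; human U2OS cells with tagged receptor and beta-arrestin; potency of agonists that increase receptor coupling to beta-arrestin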
H9c2 = test: cells; type: functional, cell-based; details: Rattus norvegicus, H9c2, Myocardium

Sequence of Melanocortin receptor 4 (P32245 whole entry): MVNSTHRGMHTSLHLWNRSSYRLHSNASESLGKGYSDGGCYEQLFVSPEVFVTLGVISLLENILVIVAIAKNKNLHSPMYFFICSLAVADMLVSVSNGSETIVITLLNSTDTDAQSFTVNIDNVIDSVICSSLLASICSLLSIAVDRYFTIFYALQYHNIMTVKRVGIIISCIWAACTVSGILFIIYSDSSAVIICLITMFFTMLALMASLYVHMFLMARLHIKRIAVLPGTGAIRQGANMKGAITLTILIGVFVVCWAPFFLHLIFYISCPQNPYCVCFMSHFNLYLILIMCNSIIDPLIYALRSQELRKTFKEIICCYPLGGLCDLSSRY
Sequence of Luciferin 4-monooxygenase (P08659 whole entry): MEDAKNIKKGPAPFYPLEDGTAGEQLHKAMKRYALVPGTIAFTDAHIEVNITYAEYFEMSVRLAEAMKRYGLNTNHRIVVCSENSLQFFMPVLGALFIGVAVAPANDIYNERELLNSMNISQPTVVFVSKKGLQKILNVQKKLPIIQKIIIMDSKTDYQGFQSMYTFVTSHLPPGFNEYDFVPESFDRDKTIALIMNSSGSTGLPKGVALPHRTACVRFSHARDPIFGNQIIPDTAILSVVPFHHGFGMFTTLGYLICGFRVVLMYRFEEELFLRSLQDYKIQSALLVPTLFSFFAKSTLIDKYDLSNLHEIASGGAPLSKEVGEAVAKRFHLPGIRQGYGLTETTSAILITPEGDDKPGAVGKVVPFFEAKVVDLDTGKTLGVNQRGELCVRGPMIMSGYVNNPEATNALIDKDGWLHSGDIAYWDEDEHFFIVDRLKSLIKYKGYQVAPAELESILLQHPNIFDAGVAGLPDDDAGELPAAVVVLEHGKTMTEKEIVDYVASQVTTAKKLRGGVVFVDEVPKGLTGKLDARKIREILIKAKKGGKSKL

## COc1ccc(-c2cc3nc(C)n(N)c(=O)c3s2)cc1
BJ [1]
  EC50: 3.64 µM (inconclusive)
[2]
  EC50: 0.263 µM (active)
BJ [3]
  EC50: 2.27 µM (active)
[4]
  EC50: 2.15 µM (active)
[5]
  AC50: 1.13 µM (active)
[6]
  AC50: 3.01 µM (active)
[7]
  IC50: > 80 µM (inactive)
[8]
  AC50: 3.1 µM (active)
[9]
  AC50: 8.99 µM (active)
[10]
  AC50: 2.33 µM (active)
[11]
  AC50: 0.289 µM (active)
BJ [12]
  EC50: 10.6 µM (active)
[13]
  AC50: 1.51 µM (active)
[14]
  AC50: 0.95 µM (active)
Jurkat
  IC50: 0.47 µM (active)
BJ [15]
  EC50: > 133 µM (inactive)
[16]
  AC50: 4.71 µM (active)
[17]
  EC50: 0.443 µM (active)
[18]
  AC50: 3.72 µM (active)
[19]
  AC50: 0.26 µM (active)
[20]
  AC50: 4.71 µM (active)

## Cc1nc2c(nc1C)C(=O)c1ccccc1C2=O
[21]
  EC50: 95.6 µM (inactive)

## COc1cccc(-c2cnc3c(NC=O)cc(-c4cccc(C(=O)N(C)C)c4)cn23)c1
Melanocortin receptor 4
  EC50: > 89.2 µM (inactive)
H9c2
  IC50: > 79 µM (inactive)

## COc1cccc(-c2cnc3c(NC(C)=O)cc(-c4cc(F)ccc4OC)cn23)c1
Melanocortin receptor 4
  EC50: > 89.2 µM (inactive)

## COc1ccccc1-c1cc(NC=O)c2ncc(-c3ccc(F)cc3)n2c1
Melanocortin receptor 4
  EC50: > 9.91 µM (active)
